PubChem BioAssay (NCI)
Values joined by “and” are separate entries in the source; they are usually repeats but may differ in a detail not shown here. Identical values can stand only once.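 Briefly, cells in 96-well plates were exposed to five compound concentrations for 48 h, and endpoints were estimated by linear interpolation. GI50 marks 50% less growth. TGI is the concentration that stops growth completely.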

Each molecule was assayed on SK-MEL-28 melanoma (assay: NCI-60 cell line screen, 48 h).

SMILES | GI50 [µM] | TGI [µM]
CC1(C)OC2C(CO[Si](C)(C)C(C)(C)C)OC(n3c(I)c(C#C[Si](C)(C)C)c(=O)[nH]c3=O)C2O1 (stereo not given) | 1.83 | 3.56
CN(C)CC[C@H](CSc1ccccc1)Nc1ccc(S(=O)(=O)NC(=O)c2ccc(N3CCN(Cc4ccccc4-c4ccc(Cl)cc4)CC3)cc2)cc1[N+](=O)[O-] | 5.73 | > 100
COc1ccc(-c2ccc(=O)oc2C#Cc2cc(OC)c(OC)c(OC)c2)cc1O | 3.25 | > 100
O=C(/C=C/c1ccc[nH]1)c1ccc(-n2ccc(C(F)(F)F)n2)cc1 | > 100 | > 100
O=C(c1ccco1)c1c(C(F)(F)F)nc2ccc(Cl)cc2[n+]1[O-] | > 100 | > 100
Clc1cc2c(c(CSc3nc4ccccc4n4cccc34)c1)OCOC2 | > 100 | > 100
CN1CCN(c2ccc(Nc3cc(-c4cccc(-n5ccc6cc(C7CC7)cc(F)c6c5=O)c4CO)cn(C)c3=O)nc2)CC1 | 4.1 | 17
COc1ccc2nc3ccccc3c(NCc3ccc(F)cc3)c2c1 | 2.9 | 9.27
CN(C)C1CCN(C(=O)c2ccc(NC(=O)Nc3ccc(-c4nc(N5CCOCC5)c5cccn5n4)cc3)cc2)CC1 | 0.0724 | 0.849
COc1cc(N=Nc2ccc(O)c3ncccc23)c2ncccc2c1 | 4.06 | > 100
CCOC(=O)N[C@H]1CCc2cc(OC)c(OC)c(OC)c2-c2ccc(SC)c(=O)cc21 | > 55.6 | > 100
CCn1c(O)c(/C=N/NC(=O)C(C)c2ccc(CC(C)C)cc2)sc1=S (stereo not given) | 1 | > 45.8
C[C@@H]1C[C@@H]([C@@H](CC2CC(=O)NC(=O)C2)OC(=O)CC(=O)c2ccccc2)C(=O)[C@@H](C)C1 | 0.752 | > 29.6
N=c1c2c(-c3ccccc3)c(-c3ccccc3)n(Cc3ccccc3)c2ncn1C1CCC(O)CC1 (stereo not given) | 0.624 | 2.22
O=c1c(F)cn(Cc2ccc(C34CC5CC(CC(C5)C3)C4)c(O)c2)c(=O)n1Cc1ccc(C23CC4CC(CC(C4)C2)C3)c(O)c1 | 17.7 | 32.3
CCOC(=O)Nc1cc2c(c(N)n1)N=C(c1ccccc1)CO2 | 15.6 | 77.7
CC1CC2CCCC(O)=C2C(=O)O1 (stereo not given) |  | > 100
CC(C)(/C=C(\C#N)C(=O)N1CCC[C@@H](n2nc(-c3ccc(Oc4ccccc4)cc3F)c3c(N)ncnc32)C1)N1CCN(C2COC2)CC1 | 9.71 | 22
O=c1oc2ccc(-c3ccc(F)cc3F)cc2c(=O)n1-c1cccc(C(F)(F)F)c1 | 0.756 | 6.56
COC(=O)c1ccc2c(c1)C(=O)c1c-2n(CCCN=[N+]=[N-])c(=O)c2cc(OC)c(OC)cc12 | > 100 | > 100
O=C(Cc1ccc(F)c(Cl)c1)Nc1cc(C2(C(F)(F)F)CC2)nn1CC1CCCCC1 | 4.82 | > 15
Nc1ncn([C@@H]2O[C@H](CO)[C@@H](O)[C@H]2O)c(=O)n1 | 2.68 | 11.1
CC(=O)Nc1ccc(-c2csc(Nc3cccc(-c4csc(C)n4)c3)n2)cc1 | 7.32 | > 37.3
C=CCC1(c2ccc(OC)cc2)C=CC(=O)CC1 (stereo not given) |  | > 100
COc1ccc(C(=O)Nc2ccc(O)c(=O)cc2)cc1 |  | 56.4

What follows are molecules tested on U251 CNS (assay: NCI-60 cell line screen, 48 h).

SMILES | GI50 [µM] | TGI
CC1(C)OC2C(CO[Si](C)(C)C(C)(C)C)OC(n3c(I)c(C#C[Si](C)(C)C)c(=O)[nH]c3=O)C2O1 (stereo not given) | 19.4 | 65.7 µM
CN(C)CC[C@H](CSc1ccccc1)Nc1ccc(S(=O)(=O)NC(=O)c2ccc(N3CCN(Cc4ccccc4-c4ccc(Cl)cc4)CC3)cc2)cc1[N+](=O)[O-] | 3.9 | 17.4 µM
COc1ccc(-c2ccc(=O)oc2C#Cc2cc(OC)c(OC)c(OC)c2)cc1O | 0.358 | 4.58 µM
O=C(/C=C/c1ccc[nH]1)c1ccc(-n2ccc(C(F)(F)F)n2)cc1 | 5.55 | > 100 µM
O=C(c1ccco1)c1c(C(F)(F)F)nc2ccc(Cl)cc2[n+]1[O-] | > 100 | > 100 µM
Clc1cc2c(c(CSc3nc4ccccc4n4cccc34)c1)OCOC2 | 17.1 | > 100 µM
CN1CCN(c2ccc(Nc3cc(-c4cccc(-n5ccc6cc(C7CC7)cc(F)c6c5=O)c4CO)cn(C)c3=O)nc2)CC1 | 3.47 | 14 µM
COc1ccc2nc3ccccc3c(NCc3ccc(F)cc3)c2c1 | 1.94 | 7.82 µM
CN(C)C1CCN(C(=O)c2ccc(NC(=O)Nc3ccc(-c4nc(N5CCOCC5)c5cccn5n4)cc3)cc2)CC1 | 0.0599 | 14.4 µM
COc1cc(N=Nc2ccc(O)c3ncccc23)c2ncccc2c1 | 3.43 | > 100 µM
CCOC(=O)N[C@H]1CCc2cc(OC)c(OC)c(OC)c2-c2ccc(SC)c(=O)cc21 |  | 61.3 µM and > 100 µM
CCn1c(O)c(/C=N/NC(=O)C(C)c2ccc(CC(C)C)cc2)sc1=S (stereo not given) | 0.399 | > 38 µM
C[C@@H]1C[C@@H]([C@@H](CC2CC(=O)NC(=O)C2)OC(=O)CC(=O)c2ccccc2)C(=O)[C@@H](C)C1 | 0.925 | > 100 µM
N=c1c2c(-c3ccccc3)c(-c3ccccc3)n(Cc3ccccc3)c2ncn1C1CCC(O)CC1 (stereo not given) | 0.15 | 5.3 µM
O=c1c(F)cn(Cc2ccc(C34CC5CC(CC(C5)C3)C4)c(O)c2)c(=O)n1Cc1ccc(C23CC4CC(CC(C4)C2)C3)c(O)c1 | 6.89 | 19.5 µM
CCOC(=O)Nc1cc2c(c(N)n1)N=C(c1ccccc1)CO2 | 0.183 | 14.3 µM
CC1CC2CCCC(O)=C2C(=O)O1 (stereo not given) |  | > 100 µM
CC(C)(/C=C(\C#N)C(=O)N1CCC[C@@H](n2nc(-c3ccc(Oc4ccccc4)cc3F)c3c(N)ncnc32)C1)N1CCN(C2COC2)CC1 | 7.35 | 25.8 µM
O=c1oc2ccc(-c3ccc(F)cc3F)cc2c(=O)n1-c1cccc(C(F)(F)F)c1 | 1.73 | 12.7 µM
COC(=O)c1ccc2c(c1)C(=O)c1c-2n(CCCN=[N+]=[N-])c(=O)c2cc(OC)c(OC)cc12 | > 100 | > 100 µM
O=C(Cc1ccc(F)c(Cl)c1)Nc1cc(C2(C(F)(F)F)CC2)nn1CC1CCCCC1 | 5.13 | > 15 µM
NC1CCN(Cc2ccccc2)CC1 | > 100 | > 100 µM
CC(=O)Nc1ccc(-c2csc(Nc3cccc(-c4csc(C)n4)c3)n2)cc1 | 1.13 | 9.69 µM
C=CCC1(c2ccc(OC)cc2)C=CC(=O)CC1 (stereo not given) |  | > 100 µM
COc1ccc(C(=O)Nc2ccc(O)c(=O)cc2)cc1 |  | > 100 µM

The molecules below were run on RPMI-8226 leukemia (assay: NCI-60 cell line screen, 48 h).

SMILES | GI50 [µM] | TGI [µM]
CC1(C)OC2C(CO[Si](C)(C)C(C)(C)C)OC(n3c(I)c(C#C[Si](C)(C)C)c(=O)[nH]c3=O)C2O1 (stereo not given) | 2.4 | 8.6
CN(C)CC[C@H](CSc1ccccc1)Nc1ccc(S(=O)(=O)NC(=O)c2ccc(N3CCN(Cc4ccccc4-c4ccc(Cl)cc4)CC3)cc2)cc1[N+](=O)[O-] | 2.56 | > 100
COc1ccc(-c2ccc(=O)oc2C#Cc2cc(OC)c(OC)c(OC)c2)cc1O | 0.23 | 
O=C(/C=C/c1ccc[nH]1)c1ccc(-n2ccc(C(F)(F)F)n2)cc1 | 0.436 | 8.15
O=C(c1ccco1)c1c(C(F)(F)F)nc2ccc(Cl)cc2[n+]1[O-] | > 100 | > 100
Clc1cc2c(c(CSc3nc4ccccc4n4cccc34)c1)OCOC2 | > 100 | > 100
CN1CCN(c2ccc(Nc3cc(-c4cccc(-n5ccc6cc(C7CC7)cc(F)c6c5=O)c4CO)cn(C)c3=O)nc2)CC1 | 3.8 | 19
COc1ccc2nc3ccccc3c(NCc3ccc(F)cc3)c2c1 | 1.24 | 3.06
CN(C)C1CCN(C(=O)c2ccc(NC(=O)Nc3ccc(-c4nc(N5CCOCC5)c5cccn5n4)cc3)cc2)CC1 | 0.275 | 1.88
COc1cc(N=Nc2ccc(O)c3ncccc23)c2ncccc2c1 | 2.97 | > 100
CCOC(=O)N[C@H]1CCc2cc(OC)c(OC)c(OC)c2-c2ccc(SC)c(=O)cc21 |  | > 100
CCn1c(O)c(/C=N/NC(=O)C(C)c2ccc(CC(C)C)cc2)sc1=S (stereo not given) | 0.425 | 4.83
